In patent US9029409B2, “Isoxazolines as therapeutic agents” (AbbVie Inc., priority 2011, dated 2015):

biological target: T1, recombinant human MMP13 catalytic domain (CD) (Homo sapiens, UniProt P45452); assay: MMP-13 catalytic domain FRET enzyme assay; assay type: biochemical; conditions: recombinant human MMP-13 catalytic domain
T1 construct: catalytic domain (CD) construct encompassing residues 20-274 (SWISS-PROT P45452); made in house
Description: A recombinant human MMP13 catalytic domain (CD) construct encompassing residues 20-274 (SWISS-PROT P45452) was generated by synthetic gene methods and bacterial expression. MMP-13 activity assays were performed using the recombinant human MMP-13 CD at a 0.4 nM concentration and the fluorogenic substrate (QXL-520)-K-P-L-A˜Nva-Dap(5-FAM)-A-R-NH2 (Anaspec cat #60554-01, San Jose, Calif.) at a 0.25 μM concentration in assay buffer containing […], pH 7.5, 10 mM CaCl2, 150 mM NaCl, 0.05% Brij 35. The assay is based on the cleavage of this substrate by MMP-13, resulting in decrease of FRET between the donor-acceptor pair and subsequent fluorescence enhancement. The assays were carried out in 384-well plates (Greiner cat #781076, Germany) for 60 min at RT. After the incubation period, the reaction was quenched by the addition of 5 μL of 500 mM EDTA (100 mM final concentration) (Rankem, Cat #E0120, India) mixed well and the rate of substrate hydrolysis was determined by monitoring change in fluorescence at excitation and emission wavelengths of 485 nm and 535 nm respectively. Fluorescence was measured on a Victor V5 plate reader (Perkin Elmer, Turku, Finland). The test compounds used for assessing the potency of inhibition of MMP-13 activity were dissolved in DMSO (final DMSO concentration in the assay was 5%). Selected compounds were also screened against full length MMP13 (R&D Systems (Cat. No. 511-MM-010), Minneapolis, Minn.) at 2 nM concentration using the same fluorogenic substrate mentioned above. The enzyme was activated using 1 m Mp-aminophenylmercuric acetate—APMA (Cat #A-9563, Sigma, Germany).
Data analysis: The percent inhibition of the enzyme activity in presence of test compounds were calculated using the equation, percent (%) Inhibition=100−[(Fi/Fc)*100] where Fc is the fluorescence corresponding to initial enzyme activity and Fi is the fluorescence corresponding to the enzyme activity in presence of inhibitor. The IC50 values were calculated by fitting the dose-response data to a sigmoidal curve fitting equation using Graph Pad prism software (Version 5, La Jolla, Calif.).
MMP13 Catalytic Domain (CD) Potency of the Described Examples Determined Using Time Resolved Fluorescence Resonance Energy Transfer (FRET) Enzyme Assays: […]

IC50 | Structure (SMILES)
< 10 nM | Cc1nc(C(=O)NCc2ccc(F)c(Cl)c2)cc(C2=NO[C@H]([C@H]3CO[C@H](CS(C)(=O)=O)CO3)C2)n1
> 1000 nM | COc1cc(CNC(=O)c2cc(C3=NOC(c4c[nH]cn4)C3)nc(C)n2)ccc1F (stereo not drawn)
< 10 nM | COc1cc(CNC(=O)c2cc(C3=NOC(c4ccncc4)C3)nc(C)n2)ccc1F (stereo not drawn)
< 10 nM | CNC(=O)Cn1cc([C@@H]2CC(c3cc(C(=O)NCc4ccc(F)c(OC)c4)nc(C)n3)=NO2)ccc1=O
> 1000 nM | Cc1nc(C(=O)NCc2cccc(F)c2)cc(C2=NO[C@@H]([C@H]3CO[C@H](CO)CO3)C2)n1
> 1000 nM | Cc1cccc(CNC(=O)c2cc(C3=NO[C@H]([C@H]4CO[C@H](CO)CO4)C3)nc(C)n2)c1
10 to 100 nM | COc1cc(CNC(=O)c2cc(C3=NOC(c4ccccc4)C3)c(=O)n(C)n2)ccc1F (stereo not drawn)
< 10 nM | CC(=O)NC[C@@H]1CO[C@@H]([C@@H]2CC(c3cc(C(=O)NCc4ccc(F)c(C)c4)nc(C)n3)=NO2)CO1
< 10 nM | COc1cc(CNC(=O)c2cc(C3=NOC(c4ccc(-c5cnco5)cn4)C3)nc(C)n2)ccc1F (stereo not drawn)
100 to 1000 nM | COc1cc(CNC(=O)c2cc(C3=NOC(c4cc(C(N)=O)nn4C)C3)nc(C)n2)ccc1F (stereo not drawn)
< 10 nM | COc1cc(CNC(=O)c2cc(C3=NO[C@H](c4ccc(=O)n(C5CC5)c4)C3)nc(C)n2)ccc1F
10 to 100 nM | COc1cc(CNC(=O)c2cc(C3=NOC(c4ccc(C(C)(C)O)cc4)C3)nc(C)n2)ccc1F (stereo not drawn)
10 to 100 nM | CCNC(=O)N1CCC(C2CC(c3cc(C(=O)NCc4ccc(F)c(OC)c4)nc(C)n3)=NO2)CC1 (stereo not drawn) [drawing 1062]
< 10 nM | COc1cc(CNC(=O)c2cc(C3=NOC([C@H]4CC[C@H](CNC(=O)CO)CC4)C3)nc(C)n2)ccc1F (stereo partly drawn)
10 to 100 nM | CNC(=O)Cn1nc(C2CC(c3cc(C(=O)NCc4ccc(F)c(OC)c4)nc(C)n3)=NO2)ccc1=O (stereo not drawn)
< 10 nM | COc1cc(CNC(=O)c2cc(C3=NOC(C4CCN(C(=O)N(C)C)CC4)C3)nc(C)n2)ccc1F (stereo not drawn) [drawing 876]
> 1000 nM | COc1ccc(CNC(=O)c2cc(C3=NO[C@@H]([C@H]4CO[C@H](CO)CO4)C3)nc(C)n2)cc1
< 10 nM | COc1cc(CNC(=O)c2cc(C3=NOC(c4cccc(C(N)=O)c4)C3)nc(C)n2)ccc1F (stereo not drawn)
10 to 100 nM | CC(=O)N1CCC(C2CC(c3cc(C(=O)NCc4ccc(F)cc4)nc(C)n3)=NO2)CC1 (stereo not drawn)
< 10 nM | Cc1nc(C(=O)NCc2ccc3c(c2)NC(=O)CO3)cc(C2=NO[C@H]([C@H]3CO[C@H](CO)CO3)C2)n1
100 to 1000 nM | Cc1nc(C(=O)NCc2ccc3c(c2)NC(=O)CC3)cc(C2=NO[C@@H]([C@H]3CO[C@H](CO)CO3)C2)n1
10 to 100 nM | COc1cc(CNC(=O)c2cc(C3=NO[C@@H](C4CCN(C(=O)CO)CC4)C3)nc(C)n2)ccc1F

IC50 | Structure (SMILES)
10 to 100 nM | COc1cc(CNC(=O)c2cc(C3=NO[C@H]([C@H]4CO[C@H](CS(C)(=O)=O)CO4)C3)nc(C)n2)ccc1F
10 to 100 nM | COc1cc(CNC(=O)c2cc(C3=NO[C@H]([C@H]4CO[C@H](CNC(=O)C(C)(C)O)CO4)C3)nc(C)n2)ccc1F
10 to 100 nM | COc1ccc(C2CC(c3cc(C(=O)NCc4ccc(F)c(OC)c4)nc(C)n3)=NO2)nn1 (stereo not drawn)
< 10 nM | COc1cc(CNC(=O)c2cc(C3=NOC(c4ccc(C#N)nc4)C3)nc(C)n2)ccc1F (stereo not drawn)
10 to 100 nM | COc1ccc(CNC(=O)c2cc(C3=NOC(c4cccc(OCCO)c4)C3)nc(C)n2)cc1 (stereo not drawn)
< 10 nM | COc1cc(CNC(=O)c2cc(C3=NO[C@H]([C@H]4CO[C@H](CNC(=O)[C@H](C)O)CO4)C3)nc(C)n2)ccc1F
10 to 100 nM | COc1cc(CNC(=O)c2cc(C3=NOC(c4ccn(CC(=O)N(C)C)c(=O)c4)C3)nc(C)n2)ccc1F (stereo not drawn)
< 10 nM | Cc1nc(C(=O)NCc2ccc3c(c2)NC(=O)CO3)cc(C2=NO[C@H]([C@H]3CC[C@H](NC(=O)[C@H](C)O)CC3)C2)n1
100 to 1000 nM | COc1cc(CNC(=O)c2cc(C3=NO[C@@H](c4ccc(=O)n(C)c4)C3)nc(C)n2)ccc1F
> 1000 nM | COc1cc(CNC(=O)c2cc(C3=NOC(c4ccc(N(C)C)nn4)C3)nc(C)n2)ccc1F (stereo not drawn)
10 to 100 nM | CC(=O)N1CCC(C2CC(c3cc(C(=O)NCc4ccc(F)c(C)c4)nc(C)n3)=NO2)CC1 (stereo not drawn)
10 to 100 nM | COc1cc(CNC(=O)c2cc(C3=NOC(c4cnc(S(C)(=O)=O)cn4)C3)nc(C)n2)ccc1F (stereo not drawn)
100 to 1000 nM | Cc1nc(C(=O)NCc2ccc(F)c(F)c2)cc(C2=NO[C@@H](c3ccc(=O)n(C)c3)C2)n1
10 to 100 nM | COc1cc(CNC(=O)c2cc(C3=NOC(C4CCN(C(=O)C5CC5)CC4)C3)nc(C)n2)ccc1F (stereo not drawn) [drawing 1063]
< 10 nM | COc1cc(CNC(=O)c2cc(C3=NOC(C4CCN(S(C)(=O)=O)CC4)C3)nc(C)n2)ccc1F (stereo not drawn)
10 to 100 nM | COc1ccc(CNC(=O)c2cc(C3=NOC(c4ccc(N5CCOCC5)cc4)C3)nc(C)n2)cc1 (stereo not drawn)
> 1000 nM | COc1cc(CNC(=O)c2cc(C3=NOC(c4nn[nH]n4)C3)nc(C)n2)ccc1F (stereo not drawn)
10 to 100 nM | Cc1nc(C(=O)NCc2ccc(F)cc2)cc(C2=NOC(c3ccc(=O)n(C)c3)C2)n1 (stereo not drawn)
10 to 100 nM | CNCC(C)N[C@H]1CC[C@H](C2CC(c3cc(C(=O)NCc4ccc(F)c(OC)c4)nc(C)n3)=NO2)CC1 (stereo partly drawn)
< 10 nM | CNC(=O)[C@H]1CC[C@H](C2CC(c3cc(C(=O)NCc4ccc(F)c(OC)c4)nc(C)n3)=NO2)CC1 (stereo partly drawn)
10 to 100 nM | COc1cc(CNC(=O)c2cc(C3=NOC([C@H]4CC[C@H](NC(=O)C(C)(C)O)CC4)C3)nc(C)n2)ccc1F (stereo partly drawn)
> 1000 nM | COc1ccc(CNC(=O)c2cc(C3=NO[C@H]([C@H]4CO[C@@H](CO)CO4)C3)nc(C)n2)cc1 [drawing 923]

IC50 | Structure (SMILES)
100 to 1000 nM | Cc1nc(C(=O)NCc2ccc(F)c(C)c2)cc(C2=NO[C@H]([C@H]3CO[C@H](CO)CO3)C2)n1
< 10 nM | COc1cc(CNC(=O)c2cc(C3=NOC([C@H]4CC[C@H](CNC(=O)CC#N)CC4)C3)nc(C)n2)ccc1F (stereo partly drawn)
10 to 100 nM | COc1ccc(CNC(=O)c2cc(C3=NOC(C4CCCCC4)C3)nc(C)n2)cc1 (stereo not drawn)
< 10 nM | COc1cc(CNC(=O)c2cc(C3=NOC(C4CCN(S(=O)(=O)c5c(C)noc5C)CC4)C3)nc(C)n2)ccc1F (stereo not drawn)
10 to 100 nM | CNC(=O)NC[C@@H]1CO[C@@H]([C@@H]2CC(c3cc(C(=O)NCc4ccc(F)c(OC)c4)nc(C)n3)=NO2)CO1
10 to 100 nM | COc1cc(CNC(=O)c2cc(C3=NOC(CC4CCN(C(C)=O)CC4)C3)nc(C)n2)ccc1F (stereo not drawn)
10 to 100 nM | COc1cc(CNC(=O)c2cc(C3=NOC(c4ccc(C(=O)NCCO)cc4)C3)nc(C)n2)ccc1F (stereo not drawn)
< 10 nM | COc1cc(CNC(=O)c2cc(C3=NOC(c4ccc(=O)n(CC(=O)N(C)OC)c4)C3)nc(C)n2)ccc1F (stereo not drawn)
> 1000 nM | CC(=O)N[C@H]1CC[C@H](C2CC(c3cc(C(=O)NCc4ccn(C)c(=O)c4)nc(C)n3)=NO2)CC1 (stereo partly drawn)
10 to 100 nM | Cc1nc(C(=O)NCc2ccc(F)c(Cl)c2)cc(C2=NO[C@H]([C@H]3CO[C@@H](CO)CO3)C2)n1 [drawing 925]
10 to 100 nM | COc1cccc(CNC(=O)c2cc(C3=NOC(C4CCN(C(=O)CO)CC4)C3)nc(C)n2)c1 (stereo not drawn)
10 to 100 nM | Cc1nc(C(=O)NCc2ccc(F)c(Cl)c2)cc(C2=NO[C@@H]([C@H]3CC[C@H](NC(=O)[C@H](C)O)CC3)C2)n1
> 1000 nM | COc1ccc(CNC(=O)c2cc(C3=NO[C@H]([C@H]4CO[C@@H](CO)CO4)C3)nc(C)n2)cc1 [drawing 922]
< 10 nM | COc1cc(CNC(=O)c2cc(C3=NOC(c4ccc(-c5cnco5)nc4)C3)nc(C)n2)ccc1F (stereo not drawn)
10 to 100 nM | COc1cc(CNC(=O)c2cc(C3=NOC(c4cnccn4)C3)nc(C)n2)ccc1F (stereo not drawn)
10 to 100 nM | COc1cc(CNC(=O)c2cc(C3=NOC(C4CCN(C(=O)CNC(C)=O)CC4)C3)nc(C)n2)ccc1F (stereo not drawn) [drawing 1064]
10 to 100 nM | Cc1nc(C(=O)NCc2ccc(F)cc2)cc(C2=NOC(c3ccccn3)C2)n1 (stereo not drawn)
10 to 100 nM | COc1cc(CNC(=O)c2cc(C3=NO[C@@H]([C@H]4CC[C@H](NC(=O)[C@H](C)O)CC4)C3)nc(C)n2)ccc1F
< 10 nM | Cc1nc(C(=O)NCc2ccc3c(c2)NC(=O)CO3)cc(C2=NOC(c3ccc(=O)n(C)c3)C2)n1 (stereo not drawn)
100 to 1000 nM | COc1ccc(CNC(=O)c2cc(C3=NOC(c4ccccn4)C3)nc(C)n2)cc1 (stereo not drawn)
10 to 100 nM | COc1ccc(CNC(=O)c2cc(C3=NOC(c4ccc(CO)cc4)C3)nc(C)n2)cc1 (stereo not drawn)
10 to 100 nM | Cc1nc(C(=O)NCc2ccc3c(c2)NC(=O)CO3)cc(C2=NO[C@@H]([C@H]3CO[C@H](CO)CO3)C2)n1
